Measurements from patent publication US4698350A, “1-ethyl-6-fluoro-1,4-dihydro- 7-(2,6-dimethyl-4-pyridinyl)-4-oxo-3-quinolinecarboxylic acid and antibacterial use thereof” (Sterling Drug Inc., priority 1984, dated 1987).
In brackets after ≈: the same amount, converted by molar mass. Like-named read-outs stand apart in the source and are kept apart here.

Key:
S. aureus (25923) = assay: In vitro antibacterial MIC/MBC test; assay type: cell-based; settings: Staphylococcus aureus, ATCC25923, S. aureus ATCC No. 25923
In short: (§1)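 Overnight cultures were adjusted by OD650 and diluted, then inoculated into serially diluted compound in MHB or, for streptococci, BHI+1% NHS at about 1×10^5 cells/ml. After 18-20 hours at 37° C. the MIC was read visually, and wells were replated on agar to obtain the MBC.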

S. aureus 4-81 = assay: In vitro antibacterial MIC/MBC test; assay type: cell-based; settings: Staphylococcus aureus, 481, S. aureus 4-81
In short: as §1

S. aureus VA16951 = assay: In vitro antibacterial MIC/MBC test; assay type: cell-based; settings: Staphylococcus aureus, S. aureus VA16951
In short: as §1

S. epidermidis (12228) = assay: In vitro antibacterial MIC/MBC test; assay type: cell-based; settings: Staphylococcus epidermidis, ATCC12228, S. epidermidis ATCC No. 12228
In short: as §1

S. epidermidis 1-3-H = assay: In vitro antibacterial MIC/MBC test; assay type: cell-based; settings: Staphylococcus epidermidis, 13H, S. epidermidis 1-3-H
In short: as §1

S. epidermidis 1-5-H = assay: In vitro antibacterial MIC/MBC test; assay type: cell-based; settings: Staphylococcus epidermidis, 15H, S. epidermidis 1-5-H
In short: as §1

S. pyogenes (89) = assay: In vitro antibacterial MIC/MBC test; assay type: cell-based; settings: Streptococcus pyogenes, S. pyogenes SWRI No. 89
In short: as §1

S. aureus = assay: In vitro MIC/MBC summary (Table II); assay type: cell-based; settings: Staphylococcus aureus, 15 S. aureus strains
Procedure: (§2) Win 52,522 and Win 35,439 were solubilized in 0.1 ml of 0.5 N NaOH/mg of compound and diluted in sterile distilled water to 160 mcg/ml. Vancomycin and methicillin were solubilized in sterile distilled water to 1250 mcg/ml of base compound. The stock solutions were sterilized by filtration through membrane filters with a 0.45 μm pore size.
(§3) The bacterial cultures listed in Table I (hereinbelow) were grown overnight at 37° C. in MHB for all cultures except the Streptococcus strains. These were grown in BHI+10% NHS. The overnight broth cultures were adjusted to an optical density of 0.10 (650 nm, B L Spectronic 20) in sterile distilled water and subsequently diluted to 6.7×10^6 cells/ml in MHB or BHI+1% NHS.
(§4) Serial two-fold dilutions of the compound solutions were prepared in MHB (or in BHI+1% NHS for tests with Streptococci) and dispensed into 96-well microtiter trays in a volume of 0.1 ml/well using a Sandy Springs (Bellco Glass Co.) dispenser. The trays were then inoculated with 0.0015 ml of a suspension containing 6.7×10^6 cells/ml of the appropriate inoculum using a MIC-2000 inoculator (Dynatech Corp.) resulting in a final inoculum of approximately 1×10^4 cells/well or 1×10^5 cells/ml. The trays were incubated at 37° C. for 18-20 hours and the minimal inhibitory concentration (MIC), defined as the lowest concentration of compound to inhibit visible bacterial growth, was recorded.
(§5) After the MIC values were recorded, the contents in the microtiter trays were thoroughly mixed on a Bellco Mini-orbital Shaker (Bellco Glass Co.) for 3 min. at a setting of 8. A portion (0.0015 ml) from each well was then transferred via an MIC-2000 inoculator to plates containing MHA or BHI agar+10% NHS. The plates were incubated at 37° C. for 18-20 hrs. The minimal bactericidal concentration (MBC), defined as the lowest concentration of compound that prevented the formation of a recognizable colony on the agar surface, was recorded.

Streptococcus sp. = assay: In vitro MIC/MBC summary (Table II); assay type: cell-based
Procedure: as §2, §3, §4, §5

S. edidermidis = assay: In vitro MIC/MBC summary (Table II); assay type: cell-based, S. epidermidis; settings: Staphylococcus epidermidis, 5 S. edidermidis strains
Procedure: as §2, §3, §4, §5

[1] = system: Staphylococcus aureus Smith; assay: Mouse protection test, S. aureus Smith infection, single dose; assay type: in vivo, ICR mice; Staphylococcus aureus; settings: single dose; for ED50: Staphylococcus aureus, 168 h, read-out: Protective Dose 50% (95% Confidence Limits); for times more efficacious than Win 35,439: S. aureus
Procedure: (§6) ICR mice, female, 18-20 grams each.
(§7) Solutions of Win 52,522 and Win 35,439 were prepared by dissolving the appropriate weight of drug in 0.3 to 0.4 ml of 1 N NaOH and then bringing the solutions to the desired volume with distilled water. Methicillin and vancomycin were dissolved directly in distilled water.
Two and one-half ml of pool were added to 247.5 ml of 5% gastric mucin to provide the test inoculum containing 2.1×10^4 cells/ml.
(§8) Mice were inoculated intraperitoneally with 0.5 ml of the bacterial test inoculum.
1. Single dose test--Mice were medicated subcutaneously or orally once (0.5 ml) one-half hour postinfection.
(§9) Deaths were recorded daily for seven days for all tests. Fifty percent protective dose values (PD50's) were calculated using probit analysis [SAS Users Guide: Statistics, 1982 Edition, SAS Institute, Inc., Cary, N.C.].

[2] = system: Staphylococcus aureus 39881 (Methicillin-resistant); assay: Mouse protection test, S. aureus 39881 (methicillin-resistant) infection; assay type: in vivo, ICR mice; Staphylococcus aureus; settings: for Survivors/Total: two doses; for ED50: Staphylococcus aureus, 168 h, read-out: Protective Dose 50% (95% Confidence Limits); for ED50 / Protective Dose 50% (95% Confidence Limits): two doses one-half and four hours postinfection; for Protective Dose 50% (95% Confidence Limits): 10080 min
Procedure: as §6, §7
The culture was streaked onto three Brain Heart Infusion Agar plates and incubated 16 hours at 37° C. The cells were washed off each plate with five ml of saline and the cell suspension was shaken with glass beads for two minutes on a paint shaker. The suspension was diluted with saline so that a […] gave a 44% T reading on a B+L Spectronic 20 (650 nm) calibrated with saline. The stock suspension was diluted 1:24 (10 ml stock suspension+230 ml 5% mucin) to obtain the test inoculum containing 1.55×10^9 cells/ml.
as §8
Mice were medicated twice: at one-half and four hours postinfection. The drugs were administered by both subcutaneous (0.2 ml) and oral (0.5 ml) routes.
as §9

## CCn1cc(C(=O)O)c(=O)c2cc(F)c(-c3cc(C)nc(C)c3)cc21 [Win 52,522, 1-ethyl-6-fluoro-1,4-dihydro-7-(2,6-dimethyl-4-pyridinyl)-4-oxo-3-quinolinecarboxylic acid]
S. aureus (25923); read-out: MBC
  MBC: 0.03 µg/mL (≈ 0.0881 µM)
S. aureus (25923); read-out: MIC
  MIC: 0.015 µg/mL (≈ 0.0441 µM)
S. aureus 4-81; read-out: MBC
  MBC: 0.03 µg/mL (≈ 0.0881 µM)
S. aureus 4-81; read-out: MIC
  MIC: 0.015 µg/mL (≈ 0.0441 µM)
S. aureus VA16951; read-out: MBC
  MBC: 0.015 µg/mL (≈ 0.0441 µM)
S. aureus VA16951; read-out: MIC
  MIC: 0.015 µg/mL (≈ 0.0441 µM)
S. epidermidis (12228); read-out: MBC
  MBC: 0.06 µg/mL (≈ 0.176 µM)
S. epidermidis (12228); read-out: MIC
  MIC: 0.06 µg/mL (≈ 0.176 µM)
S. epidermidis 1-3-H; read-out: MBC
  MBC: 0.06 µg/mL (≈ 0.176 µM)
S. epidermidis 1-3-H; read-out: MIC
  MIC: 0.06 µg/mL (≈ 0.176 µM)
S. epidermidis 1-5-H; read-out: MBC
  MBC: 0.06 µg/mL (≈ 0.176 µM)
S. epidermidis 1-5-H; read-out: MIC
  MIC: 0.06 µg/mL (≈ 0.176 µM)
S. pyogenes (89); read-out: MBC
  MBC: 0.5 µg/mL (≈ 1.47 µM)
S. pyogenes (89); read-out: MIC
  MIC: 0.5 µg/mL (≈ 1.47 µM)
S. aureus; read-out: MBC Range
  MBC: 0.015 to 0.06 µg/mL (≈ 0.0441 to 0.176 µM)
S. aureus; read-out: MIC 50%
  MIC50: 0.015 µg/mL (≈ 0.0441 µM)
S. aureus; read-out: MIC 90%
  MIC90: 0.03 µg/mL (≈ 0.0881 µM)
S. aureus; read-out: MIC Range
  MIC: 0.008 to 0.03 µg/mL (≈ 0.0235 to 0.0881 µM)
Streptococcus sp.; 9 Streptococcus sp. strains, read-out: MBC 50%
  MBC: 0.5 µg/mL (≈ 1.47 µM)
Streptococcus sp.; 9 Streptococcus sp. strains, read-out: MBC 90%
  MBC: 0.5 µg/mL (≈ 1.47 µM)
Streptococcus sp.; 9 Streptococcus sp. strains, read-out: MBC Range
  MBC: 0.125 to 0.5 µg/mL (≈ 0.367 to 1.47 µM)
Streptococcus sp.; 9 Streptococcus sp. strains, read-out: MIC 50%
  MIC50: 0.25 µg/mL (≈ 0.735 µM)
Streptococcus sp.; 9 Streptococcus sp. strains, read-out: MIC Range
  MIC: 0.125 to 0.5 µg/mL (≈ 0.367 to 1.47 µM)
Streptococcus sp.; Streptococcus
  MIC90: 0.5 µg/mL (≈ 1.47 µM)
S. edidermidis; read-out: MBC 50%
  MBC: 0.06 µg/mL (≈ 0.176 µM)
S. edidermidis; read-out: MBC 90%
  MBC: 0.06 µg/mL (≈ 0.176 µM)
S. edidermidis; read-out: MBC Range
  MBC: 0.03 to 0.125 µg/mL (≈ 0.0881 to 0.367 µM)
S. edidermidis; read-out: MIC 50%
  MIC50: 0.06 µg/mL (≈ 0.176 µM)
S. edidermidis; read-out: MIC 90%
  MIC90: 0.06 µg/mL (≈ 0.176 µM)
S. edidermidis; read-out: MIC Range
  MIC: 0.03 to 0.06 µg/mL (≈ 0.0881 to 0.176 µM)
[1]; 0.095 mg/kg sc
  Survivors/Total: 0/10
[1]; 0.19 mg/kg po
  Survivors/Total: 0/10
[1]; 0.19 mg/kg sc
  Survivors/Total: 0/10
[1]; 0.39 mg/kg po
  Survivors/Total: 0/10
[1]; 0.39 mg/kg sc
  Survivors/Total: 2/10
[1]; 0.78 mg/kg po
  Survivors/Total: 0/10
[1]; 0.78 mg/kg sc
  Survivors/Total: 4/10
[1]; 1.56 mg/kg po
  Survivors/Total: 7/10
[1]; 1.56 mg/kg sc
  Survivors/Total: 10/10
[1]; 3.13 mg/kg po
  Survivors/Total: 10/10
[1]; po
  ED50: ~1.4 mg/kg
  times more efficacious than Win 35,439: 3.9 times
[1]; sc
  ED50: 0.8 mg/kg
  times more efficacious than Win 35,439: 3.6 times
[2]; 0.19 mg/kg po
  Survivors/Total: 0/10
[2]; 0.19 mg/kg sc
  Survivors/Total: 0/10
[2]; 0.39 mg/kg po
  Survivors/Total: 0/10
[2]; 0.39 mg/kg sc
  Survivors/Total: 0/10
[2]; 0.78 mg/kg po
  Survivors/Total: 1/10
[2]; 0.78 mg/kg sc
  Survivors/Total: 2/10
[2]; 1.56 mg/kg po
  Survivors/Total: 4/10
[2]; 1.56 mg/kg sc
  Survivors/Total: 10/10
[2]; 3.13 mg/kg po
  Survivors/Total: 10/10
[2]; 3.13 mg/kg sc
  Survivors/Total: 9/10
[2]; 6.25 mg/kg po
  Survivors/Total: 10/10
[2]; 6.25 mg/kg sc
  Survivors/Total: 10/10
[2]; po
  ED50: 1.6 mg/kg
  Protective Dose 50% (95% Confidence Limits): 1.6(1.3-2.4) mg/kg
[2]; sc
  ED50: 1.1 mg/kg
  times more active than Win 35,439: 4.5 times
  times more efficacious/active than vancomycin: 16 times
  Protective Dose 50% (95% Confidence Limits): 1.1(0.1-4.1) mg/kg
[2]; methicillin-resistant S. aureus infection in mice
  times more efficacious than methicillin: > 91 times
